In US20150125457A1, “BONE REPAIR PROMOTER” (DAIICHI SANKYO COMPANY, LIMITED, priority 2012, published 2015):

What was measured:
Assay type in all cases: in vivo
rat femur fracture model [1] = test: Rat femur fracture model, tissue observation in the femur fracture site
Procedure: A fracture model was surgically prepared at the left femoral diaphysis of a 6-week-old female SD strain (Crl: CD) IGS rat. A barbital-based anesthetic agent (Somnopentyl®, Kyoritsu Seiyaku Corporation) was intraperitoneally administered to an animal in order to anesthetize the animal. Isoflurane (Escain, Mylan Inc.) inhalation anesthesia was performed as an adjunct to anesthesia. The skin on the upside of the knee joint was incised, exfoliation was performed between the rectus femoris muscle and the vastus lateralis muscle to expose the femur. At around 0.5 mm distal from the center of the femoral diaphysis, the diaphysis was completely cut in cross-section by a bone cutter (Osada Equipment Co., Ltd.). After that, an injection needle 21G was inserted into the bone marrow between the greater trochanter and the femur neck of the left femur, and the muscle and the skin were sutured with 2 to 3 stitches. For the prevention of post-operative suppuration, potassium penicillin G for injection (Meiji Seika Kaisha, Limited) was administered as an antibiotic, and the suture site of the skin was disinfected with povidone-iodine (Isodine®, Meiji Seika Kaisha, Limited). As the test substance, CNP derivative A (SEQ ID NO: 13: the SEQ ID NO: 157 of the publication of US patent application US 2010-305031, produced by a method described in the publication) was used for repeated subcutaneous administration at 10 or 100 nmol/kg once per day for 8 weeks. Vehicle was administered to the control group. On the next day after the administration end date, the left and right femurs and the left and right tibiae were resected. For the resected bone, the bone length, and the callus size in the fracture site were measured, the left and right femurs were subjected to soft X-ray radiography, and then the healing state in the fracture site was determined. After that, a three-point bending strength test was performed by using a bone strength measuring device MZ-500S (MARUTO INSTRUMENT CO., LTD.), and a bone strength testing system CTR win Ver. 1.21 (System Supply Co., Ltd.). The bone after finishing the measurements was fixed with 10% neutral buffered formalin, and the pathologic sample was prepared and observed. The administration was performed to a group of 14 rats including spare rats. At 2, 4, and 6 weeks after the administration, one from each of the cases was sampled for follow-up, further the one in the control group, which had shown nonunion-like symptoms, was excluded from the evaluation, and eventually the results were evaluated as a group of 10 rats.

Sox9 gene = test: Rat closed femur fracture model, cartilage-related marker gene expression (real-time PCR); conditions: 0.5 mg/kg/day continuous s.c. (osmotic pump) for one week; 7 days after fracture; normalized to ubiquitin C
Procedure: In accordance with the method of Example 2, a rat closed fracture model was prepared. For an animal in a Sham group, a pin only was inserted into the femur, and a bone fracture was not prepared. An administration solution of CNP derivative A was prepared so as to be a dosage corresponding to 0.5 mg/kg/day, and then loaded into an osmotic pump (model 2001, Alzet). The osmotic pump was buried under the skin of the neck back of the animal, and continuous subcutaneous administration was performed for one week. Vehicle was continuously subcutaneously administered to the control group. 7 days after the preparation of the bone fracture, the animal was subjected to isoflurane inhalation anesthesia, retained in a supine position to open the abdomen, and then bled for the euthanasia. The left femur was resected, and immersed into RNAlater (Life Technologies Corporation). The diaphysis or part of the callus was cut out from the femur that had been refrigerated in RNAlater for one day or more. To the cut-out diaphysis or part of the callus, QIAzol (QIAGEN) was added, and the resultant was crushed with tungsten beads. […] The gene expression level was measured by a real-time PCR method using TaqMan Gene Expression Master Mix (Life Technologies Corporation). The measured value was standardized by the gene expression level of ubiquitin-C. […]

[2] = system: rat closed femur fracture model; test: Rat closed femur fracture model, torsion test of femur strength; conditions: 4 weeks after fracture
Excerpt: A 10-week-old male Wistar rat (Charles River Laboratories Japan, Inc.) was anesthetized by isoflurane inhalation (inhalation of 5%, and retention of 2%), and retained in a supine position. The peripheral portion of the left knee was shaved with a clipper, and disinfected with Hibitane. About 2 cm of the skin of the left knee on the upside of the patella was incised. About 5 mm of the joint capsule was incised along with the outer edge of the patella, and then the patella was dislocated inward from the trochlear groove. A 22G injection needle was inserted into the medullary cavity in the center of the trochlear groove, and pulled out. Into the hole, a Kirschner wire (MIZUHO Corporation) having a diameter of 1 mm, which had been cut to 32 mm in advance was fully inserted in the medullary cavity of the femur. The joint capsule and the incised part of the skin were sutured with nylon suture (Alfresa Pharma Corporation). The left hind limb was fixed to an Einhorn type of bone fracture preparation device (special order item), and mechanical stress was added to the femur by dropping a weight from a predetermined position to prepare the bone fracture. Soft X-ray images of the hind limb were taken by using CT for animals (LCT-200, Hitachi Aloka Medical, Ltd.), and as a result it was confirmed that transverse fracture was prepared in the vicinity of the center of the femur. For the infection prevention, potassium penicillin G (Meiji Seika Pharma Co., Ltd.) was administered intramuscularly. CNP derivative A was administered subcutaneously once a day at a dose of 0.42 mg/kg/day for 7 days from one day after the surgery. Vehicle was administered to the control group. 4 weeks after the preparation of the bone fracture, the animal was anesthetized by isoflurane inhalation, retained in a supine position, and then bled for the euthanasia. The left and right femurs were resected, immersed in a physiological saline solution, and cryopreserved in a freezer. The femurs were thawed at a later date, subjected to torsion test using a bone strength meter (MZ-500S, MARUTO INSTRUMENT CO., LTD.), and the strength of the femur was measured. The test was performed in 12 cases in each group.

rat femur fracture model [3] = test: Rat femur fracture model, soft X-ray radiography of femurs; conditions: 10 or 100 nmol/kg s.c. once per day for 8 weeks; FIG. 1
Procedure: A fracture model was surgically prepared at the left femoral diaphysis of a 6-week-old female SD strain (Crl: CD) IGS rat. A barbital-based anesthetic agent (Somnopentyl®, Kyoritsu Seiyaku Corporation) was intraperitoneally administered to an animal in order to anesthetize the animal. Isoflurane (Escain, Mylan Inc.) inhalation anesthesia was performed as an adjunct to anesthesia. The skin on the upside of the knee joint was incised, exfoliation was performed between the rectus femoris muscle and the vastus lateralis muscle to expose the femur. At around 0.5 mm distal from the center of the femoral diaphysis, the diaphysis was completely cut in cross-section by a bone cutter (Osada Equipment Co., Ltd.). […] For the resected bone, the bone length, and the callus size in the fracture site were measured, the left and right femurs were subjected to soft X-ray radiography, and then the healing state in the fracture site was determined. […] At 2, 4, and 6 weeks after the administration, one from each of the cases was sampled for follow-up, further the one in the control group, which had shown nonunion-like symptoms, was excluded from the evaluation, and eventually the results were evaluated as a group of 10 rats.

[4] = 10 nmol/kg, 8-week administration, left femur fracture site, grade 0-5, mean ± SD, N=10
[5] = 100 nmol/kg, 8-week administration, left femur fracture site, grade 0-5, mean ± SD, N=10
[6] = 100 nmol/kg, 8 weeks, compared to the control group

CNP derivative A: CNP (1-22) Ghrelin (12-28, E17D): SEQ ID NO: 13; SEQ ID NO: 157 of US 2010-305031 (GLSKGCFGLKLDRIGSMSGLGCVQQRKDSKKPPAKLQPR; Chimeric CNP J (SEQ ID NO157) of US2010-305031 and WO2009/142307, and CNP derivative A of current invention.)
Callus Amount (rat femur fracture model [1]; [4]): 2.1 ± 1.0 Grade | Callus Cartilage (rat femur fracture model [1]; [4]): 1.5 ± 2.0 Grade | Callus Continuity (rat femur fracture model [1]; [4]): 3.2 ± 2.1 Grade | Cortical bone/bone marrow areas Cancellous bone (rat femur fracture model [1]; [4]): 2.9 ± 1.7 Grade | Cortical bone/bone marrow areas Cartilage (rat femur fracture model [1]; [4]): 0.9 ± 1.7 Grade | Cortical bone/bone marrow areas Connective tissue (rat femur fracture model [1]; [4]): 0.7 ± 1.6 Grade | Cortical bone/bone marrow areas Osteoclasts (rat femur fracture model [1]; [4]): 0.6 ± 1.1 Grade | Callus Amount (rat femur fracture model [1]; [5]): 2.3 ± 1.2 Grade | Cortical bone/bone marrow areas Cancellous bone (rat femur fracture model [1]; [5]): 3.0 ± 1.1 Grade | Cortical bone/bone marrow areas Continuity (rat femur fracture model [1]; [5]): 2.7 ± 1.8 Grade | Grade of cartilage formation (rat femur fracture model [1]; [6]): tendency for a decreasing grade of cartilage formation | Grade of ossification of the callus (rat femur fracture model [1]; [6]): tendency for an increasing grade of ossification of the callus | Repair of the bone cut region (rat femur fracture model [1]; overall conclusion of tissue observation, 8 weeks after fracture): promoted | Gene expression level of Sox9 in fractured left femur (Sox9 gene): this high level was maintained | Share of individuals whose fractured left femur showed the reference value (3 N×mm/deg) or more ([2]; 0.42 mg/kg/day s.c. for 7 days, 12 individuals, vehicle 33%): 83% | Number of individuals whose fractured left femur showed the reference value (3 N×mm/deg) or more ([2]; 0.42 mg/kg/day s.c. for 7 days, out of 12 individuals): 10 individuals | Healing rate of the fracture ([2]; 0.42 mg/kg/day s.c. for 7 days, versus vehicle): significantly improved | Strength of the left femur to which bone fracture had been prepared (torsion test stiffness) ([2]; 0.42 mg/kg/day s.c. once a day for 7 days from one day after surgery, 12 cases): almost the same as that of the untreated right femur | Continuity of the cortical bone in soft X-ray images of femurs (rat femur fracture model [3]): tendency for enhanced continuity of the cortical bone | Remaining fracture line in soft X-ray images of femurs (rat femur fracture model [3]): decreasing tendency for the fracture line to remain
